Experiments:
Parkinson's disease = assay: anti-Parkinsonism action in human (Webster scale, disability score); assay type: in vivo
Text: The effect of the anti-Parkinsonism action is established, for example, by Webster, D. D., Med. Treat. (N.Y.) 5, pp. 257-282, 1968. Here, the different symptoms are assigned and weighted after application of the monosubstance amantadine or the combination:
1. Slowed motor response of the hands
2. Rigor (elevation of the muscle tone)
4. Simultaneous swinging of the upper extremities
10. Ability to stand alone.
An anti-Parkinsonism action is present if the sum of the values resulting from the Webster scale (the so-called disability score) is lower than the initial value without medication (<30). The synergistic effect of the combination results from the following: When selegiline is used in addition, the sum of the disability score is lower than that which would have been achieved if only amantadine had been used and/or the duration of the effectiveness of amantadine is extended.

akinetic crisis = assay: improvement of the akinetic crisis (critical deteriorations of the Morbus Parkinson); assay type: in vivo, human; settings: intravenous amantadine, without or with addition of selegiline

Compound | anti-Parkinsonism action (Parkinson's disease; Parkinson's disease, compared to pure amantadine) | improvement of the symptoms of Parkinson (Webster sums) (Parkinson's disease; early stages of Morbus Parkinsonism) | onset of improvement of the akinetic crisis (akinetic crisis)
C#CCN(C)[C@H](C)Cc1ccccc1 [selegiline, N-(1-phenyl-2-propyl)-N-methyl-2-propinylamine] | almost no anti-Parkinsonism action | does not show sufficient effect in regard to improving the symptoms of the Parkinson symptomatics | –
NC12CC3CC(CC(C3)C1)C2 [amantadine, 1-amino-adamantane] | – | – | relatively slowly setting in improvement of the akinetic crisis
